Assay results taken from the NIST ThermoML archive (doi:10.1021/je060271a).
Several values for one entry are separate records, joined by “and”; a condition that tells them apart may be missing. Equal values may be shown once. ± gives the expanded uncertainty stated by the source.

Details: 283.15 K, Liquid, Vibrating tube method

CCCCCC(=O)OCC(COC(=O)CCCCC)(COC(=O)CCCCC)COC(=O)CCCCC [pentaerythritol tetrahexanoate]
Details	mass density
147.5 kPa	1004.2 ± 1.2 kg/m3
147.8 kPa	1004.2 ± 1.2 kg/m3
148.2 kPa	1004.2 ± 1.2 kg/m3
148.7 kPa	1004.3 ± 1.2 kg/m3
150.5 kPa	1004.1 ± 1.2 kg/m3
150.8 kPa	1004.2 ± 1.2 kg/m3
151.3 kPa	1004.3 ± 1.2 kg/m3
151.5 kPa	1004.3 ± 1.2 kg/m3
151.7 kPa	1004.3 ± 1.2 kg/m3
152.4 kPa	1004.2 ± 1.2 kg/m3
152.7 kPa	1004.2 ± 1.2 kg/m3
153.2 kPa	1004.2 ± 1.2 kg/m3
153.4 kPa	1004.2 ± 1.2 kg/m3
153.7 kPa	1004.4 ± 1.2 kg/m3
154.1 kPa	1004.3 ± 1.2 kg/m3
154.3 kPa	1004.2 ± 1.2 kg/m3
154.6 kPa	1004.1 ± 1.2 kg/m3 and 1004.2 ± 1.2 kg/m3
155.1 kPa	1004.3 ± 1.2 kg/m3
155.7 kPa	1004.2 ± 1.2 kg/m3
156.4 kPa	1004.2 ± 1.2 kg/m3
156.5 kPa	1004.1 ± 1.2 kg/m3 and 1004.2 ± 1.2 kg/m3
157.2 kPa	1004.3 ± 1.2 kg/m3
157.6 kPa	1004.2 ± 1.2 kg/m3
157.7 kPa	1004.2 ± 1.2 kg/m3
157.9 kPa	1004.3 ± 1.2 kg/m3
160.5 kPa	1004.2 ± 1.2 kg/m3
161 kPa	1004.2 ± 1.2 kg/m3
161.4 kPa	1004.2 ± 1.2 kg/m3
161.6 kPa	1004.3 ± 1.2 kg/m3
162.3 kPa	1004.3 ± 1.2 kg/m3
162.4 kPa	1004.1 ± 1.2 kg/m3
163 kPa	1004.2 ± 1.2 kg/m3
163.1 kPa	1004.3 ± 1.2 kg/m3
163.8 kPa	1004.3 ± 1.2 kg/m3
164.2 kPa	1004.3 ± 1.2 kg/m3
164.5 kPa	1004.2 ± 1.2 kg/m3
164.7 kPa	1004.3 ± 1.2 kg/m3
165.2 kPa	1004.2 ± 1.2 kg/m3
165.7 kPa	1004.3 ± 1.2 kg/m3
166.4 kPa	1004.1 ± 1.2 kg/m3
166.8 kPa	1004.3 ± 1.2 kg/m3
166.9 kPa	1004.3 ± 1.2 kg/m3
167.5 kPa	1004.2 ± 1.2 kg/m3
168.2 kPa	1004.2 ± 1.2 kg/m3
169.7 kPa	1004.2 ± 1.2 kg/m3
173.5 kPa	1004.2 ± 1.2 kg/m3
174.1 kPa	1004.2 ± 1.2 kg/m3
174.8 kPa	1004.1 ± 1.2 kg/m3
175.1 kPa	1004.3 ± 1.2 kg/m3
175.4 kPa	1004.2 ± 1.2 kg/m3
177 kPa	1004.2 ± 1.2 kg/m3
177.9 kPa	1004.2 ± 1.2 kg/m3
178 kPa	1004.2 ± 1.2 kg/m3
178.4 kPa	1004.1 ± 1.2 kg/m3
178.9 kPa	1004.2 ± 1.2 kg/m3
179.4 kPa	1004.2 ± 1.2 kg/m3
179.6 kPa	1004.2 ± 1.2 kg/m3
179.8 kPa	1004.2 ± 1.2 kg/m3
180.3 kPa	1004.3 ± 1.2 kg/m3
181 kPa	1004.2 ± 1.2 kg/m3
181.4 kPa	1004.2 ± 1.2 kg/m3
181.9 kPa	1004.3 ± 1.2 kg/m3
182.2 kPa	1004.2 ± 1.2 kg/m3
182.9 kPa	1004.3 ± 1.2 kg/m3
184.1 kPa	1004.3 ± 1.2 kg/m3
185 kPa	1004.3 ± 1.2 kg/m3
185.3 kPa	1004.2 ± 1.2 kg/m3
185.7 kPa	1004.2 ± 1.2 kg/m3
186 kPa	1004.3 ± 1.2 kg/m3
186.4 kPa	1004.2 ± 1.2 kg/m3
187.1 kPa	1004.2 ± 1.2 kg/m3
187.6 kPa	1004.3 ± 1.2 kg/m3
188.3 kPa	1004.3 ± 1.2 kg/m3
188.6 kPa	1004.2 ± 1.2 kg/m3
188.8 kPa	1004.1 ± 1.2 kg/m3
189.2 kPa	1004.2 ± 1.2 kg/m3
189.5 kPa	1004.3 ± 1.2 kg/m3
189.9 kPa	1004.3 ± 1.2 kg/m3
190.2 kPa	1004.1 ± 1.2 kg/m3
190.5 kPa	1004.3 ± 1.2 kg/m3
190.7 kPa	1004.2 ± 1.2 kg/m3
191.4 kPa	1004.2 ± 1.2 kg/m3
191.9 kPa	1004.3 ± 1.2 kg/m3
192.3 kPa	1004.3 ± 1.2 kg/m3 and 1004.2 ± 1.2 kg/m3
192.6 kPa	1004.4 ± 1.2 kg/m3
192.8 kPa	1004.2 ± 1.2 kg/m3
193.1 kPa	1004.2 ± 1.2 kg/m3
193.3 kPa	1004.2 ± 1.2 kg/m3
193.8 kPa	1004.2 ± 1.2 kg/m3
194.4 kPa	1004.2 ± 1.2 kg/m3
194.7 kPa	1004.3 ± 1.2 kg/m3
195.1 kPa	1004.3 ± 1.2 kg/m3
195.2 kPa	1004.2 ± 1.2 kg/m3
195.8 kPa	1004.2 ± 1.2 kg/m3
195.9 kPa	1004.2 ± 1.2 kg/m3
196.3 kPa	1004.3 ± 1.2 kg/m3
196.8 kPa	1004.3 ± 1.2 kg/m3
197.1 kPa	1004.2 ± 1.2 kg/m3
197.3 kPa	1004.2 ± 1.2 kg/m3
197.5 kPa	1004.1 ± 1.2 kg/m3
197.8 kPa	1004.3 ± 1.2 kg/m3
198.2 kPa	1004.2 ± 1.2 kg/m3
198.7 kPa	1004.3 ± 1.2 kg/m3
198.9 kPa	1004.3 ± 1.2 kg/m3
199.2 kPa	1004.2 ± 1.2 kg/m3
199.6 kPa	1004.4 ± 1.2 kg/m3
200.3 kPa	1004.3 ± 1.2 kg/m3
200.8 kPa	1004.1 ± 1.2 kg/m3 and 1004.3 ± 1.2 kg/m3
201 kPa	1004.2 ± 1.2 kg/m3
201.5 kPa	1004.1 ± 1.2 kg/m3
202 kPa	1004.3 ± 1.2 kg/m3
202.2 kPa	1004.4 ± 1.2 kg/m3
202.5 kPa	1004.2 ± 1.2 kg/m3
202.7 kPa	1004.1 ± 1.2 kg/m3
203.2 kPa	1004.3 ± 1.2 kg/m3
204.1 kPa	1004.1 ± 1.2 kg/m3
204.3 kPa	1004.2 ± 1.2 kg/m3
204.6 kPa	1004.2 ± 1.2 kg/m3
205.1 kPa	1004.2 ± 1.2 kg/m3
205.7 kPa	1004.2 ± 1.2 kg/m3
205.8 kPa	1004.2 ± 1.2 kg/m3
206.5 kPa	1004.3 ± 1.2 kg/m3 and 1004.2 ± 1.2 kg/m3
207 kPa	1004.1 ± 1.2 kg/m3
208.6 kPa	1004.2 ± 1.2 kg/m3
208.8 kPa	1004.3 ± 1.2 kg/m3
209.3 kPa	1004.2 ± 1.2 kg/m3
209.6 kPa	1004.2 ± 1.2 kg/m3
210 kPa	1004.2 ± 1.2 kg/m3
210.5 kPa	1004.3 ± 1.3 kg/m3
211 kPa	1004.2 ± 1.2 kg/m3
211.6 kPa	1004.3 ± 1.2 kg/m3
212.1 kPa	1004.2 ± 1.2 kg/m3
212.4 kPa	1004.3 ± 1.2 kg/m3
212.8 kPa	1004.3 ± 1.2 kg/m3
212.9 kPa	1004.2 ± 1.2 kg/m3
213.5 kPa	1004.3 ± 1.2 kg/m3
213.8 kPa	1004.2 ± 1.2 kg/m3
214.5 kPa	1004.3 ± 1.2 kg/m3
215.2 kPa	1004.3 ± 1.2 kg/m3
215.7 kPa	1004.2 ± 1.2 kg/m3
216.2 kPa	1004.3 ± 1.2 kg/m3
216.8 kPa	1004.2 ± 1.2 kg/m3
217.5 kPa	1004.2 ± 1.2 kg/m3
219 kPa	1004.1 ± 1.2 kg/m3
219.4 kPa	1004.3 ± 1.2 kg/m3
